# Laboratory results reported in US8822509B2, “Pain-relieving compositions and uses therefor” (priority 2006, dated 2014).
# “Also recorded” adds a separate entry of the source.
# Tests used:
# [1] = test system: cGMP formation in HEK-MOP cells; test: cGMP levels in MOP-transfected HEK cells (AlphaScreen); format: cell-based
# Protocol: For assessment of cGMP levels in MOP-transfected HEK cells, the methods used were similar to those described in Example 6 with the exception that forskolin was omitted from the incubations. cGMP levels were quantified using AlphaScreen detection kits according to the manufacturer's instructions. Briefly, 5 μL aliquots of the cell suspension were added to individual wells containing 5 μL aliquots of test or control article solutions at the concentration of interest in triplicates in 384-well plates and incubated for 30 min at 37° C. cGMP standard solutions were serially diluted in stimulation buffer to give concentrations in the range of 5×10^−10-5×10^−6 M and were added at 10 μL/well. After cells were lysed with lysis buffer, 5 μL aliquots of acceptor bead mix (10 μl/mL of acceptor beads and 1/3000 anti-cGMP antibody for cGMP detection in lysis buffer) were added to each well. After plates were incubated in the dark at room temperature for 60 min, 5 μL aliquots of donor bead mix (10 μL/mL of donor beads and 0.3 nM biotinylated cGMP in lysis buffer) were added per well and plates were incubated for 16 h in the dark at room temperature. […] was measured using an Envision Multilabel Plate Reader (PerkinElmer Life Sciences).
# [2] = test system: systolic blood pressure of normotensive non-diabetic Wistar rats; test: Systolic blood pressure (tail cuff) in normotensive rats; format: in vivo
# Protocol: Sedation was induced by the intraperitoneal administration of Zoletil® (tiletamine 15 mg kg^−1 and zolazepam 15 mg kg^−1). Using a tail pulse transducer (MLT1010) and an inflatable tail cuff with a Capto SP844 physiological pressure transducer (MLT844/D), systolic blood pressure was recorded via a PowerLab data acquisition unit (ADInstruments, Sydney, Australia). Tails were warmed with lukewarm water prior to each blood pressure reading to increase peripheral circulation so as to facilitate blood pressure recordings using the tail cuff method.
# This study was designed to assess the effects of single s.c. bolus doses of the furoxan NO donor, Compound 1, relative to vehicle (DMSO:water, 90:10) on systolic blood pressure in normotensive, non-diabetic, adult male Wistar rats. Single bolus doses of Compound 1 were administered by s.c. injection into the back of the neck of adult male normotensive, non-diabetic Wistar rats in the dose range, 80 fmol/kg to 80 lμmol/kg. Specifically, the doses of Compound 1 tested were 80 fmol/kg (n=3), 800 pmol/kg (n=8), 8 nmol/kg (n=6), 800 nmol/kg (n=4), 8 μmol/kg (n=4), 80 μmol/kg (n=3).
# [3] = test system: STZ-diabetic rats; test: Behavioural side-effects in STZ-diabetic rats; format: in vivo; settings: Compound 1 800 pmol/kg s.c.; morphine 21 μmol/kg
# [4] = test system: tactile allodynia in 14-18 week STZ-diabetic rats; test: Naloxone or ODQ pre-treatment before test article in 14-18 week STZ-diabetic rats, von Frey PWT; format: in vivo, Wistar rats
# [5] = test system: non-diabetic control rats; test: Tolerance development (7-day continuous s.c. infusion, 2-day washout) in non-diabetic control rats, von Frey PWT; format: in vivo
# [6] = drug-naïve non-diabetic rats, first s.c. bolus
# [7] = non-diabetic rats, second s.c. bolus after 7-day infusion and 2-day washout
# [8] = non-diabetic rats, second s.c. bolus after washout
smiles,measurement,setting,value
"Cc1c(C=O)no[n+]1[O-] [Compound 1, 4-formyl-3-methyl-1,2,5-oxadiazole-2-oxide]",cGMP Activity (% of basal cGMP response),"[1]; Compound 1, 1 mM",159 + 20%
same,cGMP Activity (% of basal cGMP response),"[1]; Compound 1, 1 mM + L-Cysteine 5 mM",185 + 34%
same,fold increase in cGMP activity with L-cysteine,"[1]; Compound 1, 1 mM + L-Cysteine 5 mM vs alone",(1.2 fold increase)
same,stimulation of cGMP formation,"[1]; HEK-MOP cells, presence and absence of L-cysteine (5 mM)",comparatively weak stimulation of cGMP formation
same,effect on systolic blood pressure,"[2]; 80 μmol/kg s.c., 30 min post-dosing vs pre-dosing baseline",decreased significantly; also recorded: significantly reduced systolic blood pressure
same,mean (±SEM) systolic blood pressure at time of peak effect,"[2]; 80 μmol/kg s.c., 30 min post-dosing, pre-dose 111.3 (±1.5)",79.8 (±0.5) mm Hg
same,mean systolic blood pressure,"[2]; 80 μmol/kg s.c., 1 h post-dosing",112.6±0.4 mm Hg
same,effect on systolic blood pressure,"[2]; single s.c. bolus 80 fmol/kg to 8 μmol/kg, up to 1 h",no significant effects
same,behavioural side-effects at highest dose,[3],no discernable side-effects
same,effect of ODQ pre-treatment on anti-allodynia,[4]; ODQ 53.4 μmol/kg s.c. 60 min before Compound 1 800 pmol/kg s.c.,significantly attenuated from 45 minutes onwards; also recorded: partially sensitive
same,effect of naloxone pre-treatment on anti-allodynia (ΔPWT AUC),[4]; naloxone 1.25 μmol/kg s.c. 10 min before Compound 1 800 pmol/kg or morphine 7 μmol/kg s.c.,did not significantly attenuate; also recorded: naloxone insensitive
same,mean duration of action,[5]; [6],~3 h
same,time of peak antinociception post-dosing,[5]; [6],1 h
same,mean (±SEM) peak PWT,"[5]; drug-naïve non-diabetic rats, Compound 1 8 fmol/kg, morphine 2.8 mmol/kg (so in the source) s.c. bolus",15.9 ± 0.3 g
same,tolerance after 7-day continuous s.c. infusion,[5]; non-diabetic rats,completely tolerant
same,"antinociception after second bolus, naïve vs ""tolerant"" rats","[5]; non-diabetic rats, after 2-day washout",did not differ significantly
same,mean (±SEM) peak PWT,[5]; [7],15.6 (±0.7) g
same,mean (±SEM) peak ΔPWT,[5]; [7],4.2 (±0.6) g
same,mean duration of action,[5]; [8],~3 h
same,time of peak antinociception post-dosing,[5]; [8],1 h
